Experimental data reported in patent US20040071707A1, “Modulation of cell growth” (priority 2000, published 2004).

Tested on: HUVEC
Experiment: In vitro endothelial cell proliferation assay
Assay type: cell-based, Human
Settings: for effect on anti-kringle 2 (7VPA) induced HUVEC proliferation: HUVEC stimulated with 700 nM (or 1400 nM) 7VPA, simultaneous addition
Method: Human umbilical vein endothelial cells (HUVEC) were purchased from Clonetics or isolated from umbilical vein cords by mild collagenase treatment as described and cultured in M199 with Earle's salts (Sigma) with 20% heat inactivated fetal bovine serum (Sigma), 100 IU/mL penicillin 100 μg/mL streptomycin (Gibco), 250 ng/mL fungizone (Gibco), 2 mM glutamine (Gibco), 5 IU/mL heparin (Sigma) and 50 μg/mL ECGS (Technoclone, Vienna, Austria). Human vascular smooth muscle cells (HVSMC) were isolated as described.
3×10^3 cells were plated in 96-well plates and allowed to attach overnight. Growth was arrested by incubation with 100 μL reduced growth medium (M199 with 2% FBS) for 24 h. Thereafter anti-tPA antibodies and other reagents were added to wells. K2P (Reteplase), anti-kringle 2 (7VPA) and anti-finger/EGF antibodies (3VPA and 6VPA) were a gift from Technoclone, Vienna, Austria. Anti-kringle 1 (PAM-2), anti-kringle 2 (ESP1) and anti-protease (374B and ESP2) antibodies were purchased from American Diagnostica, Alpha Labs, UK. D-mannitol and LY294002 were obtained from Sigma. VEGF121 and bFGF were purchased from R&D Systems Inc., UK. Recombinant single chain tPA (rsctPA) was obtained from Boehringher Ingelheim. The mutant alatPA was kindly provided by Prof. Roger Lijnen (Center for Molecular and Vascular Biology, Leuven, Belgium). Aprotinin was purchased from Boehringer Mannheim. The tPA peptides (tPA I and tPA II) corresponding to residues 7-17 and 15-26 respectively were synthesized by the Clinical Sciences Centre peptide synthesis facility at Hammersmith and the ICRF peptide unit. Rp-cAMPS and Lavendustin A were obtained from Calbiochem, UK. After 4 days of incubation cell number was quantified colorimetrically by the addition of 20 μL CellTiter 96 AQueous One Solution Cell Proliferation Assay (Promega) at 492 nm and 620 nm reference filter. Background absorbance was determined with substrate alone and subtracted from all wells.
HUVEC were plated at 1×10^5 cells in 12 well plates overnight. Medium was replaced with reduced growth medium overnight followed by addition of anti-K2 antibody. Control wells contained M199 and 2% FBS alone. After 3 days incubation cells were counted in a hemocytometer.

Row | Compound | effect on anti-kringle 2 (7VPA) induced HUVEC proliferation (4 days) | further results
1 | O=C(O)c1cc(N(Cc2ccccc2O)Cc2cc(O)ccc2O)ccc1O [Lavendustin A, reference compound] | could inhibit | –
2 | Nc1ncnc2c1ncn2[C@@H]1O[C@@H]2CO[P@@](O)(=S)O[C@H]2[C@H]1O [Rp-cAMPS, reference compound] | could inhibit | –
3 | OC[C@@H](O)[C@@H](O)[C@H](O)[C@H](O)CO [mannitol, D-mannitol, reference compound] | – | effect on basal HUVEC/EC growth (substance alone) (M199 with 2% FBS, 4 days, colorimetric): No effect
4 | angiostatin [reference compound] | – | concentration giving 50% inhibition (HUVEC growth, bFGF 10 ng/mL (FIG. 4B)): 45 µg/mL
5 | aprotinin [reference compound] | could not block | –
